The values that follow come from patent US20250248936A1 (priority 2022, published 2025).

Holding throughout (type): in vivo, female turkeys
For test [1], the system named is H. meleagridis. The experiment in a line: Controlling Histomoniasis in turkeys (QSC, QS15 750 ppm). The note with it: MED 30 mg/kg bird/day, QSC 750 ppm. How it is done: A total of 200 3-week-old female turkeys were randomly grouped into 9 pens. The groups were: control (−) (CON), control (+) (POS), metronidazole (MED), two 750 PPM QSC-treated groups, and two groups treated with 750 PPM QS15-treated groups. The CON group was not challenged or treated with any product, POS was only inoculated a H. meleagridis suspension, and the MED group was inoculated with the same dose and treated with 30 mg/kg metronidazole per bird/day. The CON group was comprised of 16 young female turkeys, while the remainder comprised 23 each. Table 17 summarizes the bird distribution according to treatment, as well as the appropriate product dosage.
The treatments were started at 3 weeks of age. The H. meleagridis challenge suspension had approximately 100000 cells/mL and was inoculated at 4 weeks of […] age. Weight was measured at 3, 6 and 8 weeks of age. Feed intake was estimated at 6 and 8 weeks of age. The young female turkey mortality rate was recorded throughout the trial, and lesions were measured by using a previously standardized lesion scoring at 8 weeks of age.

The test system of test [2] is H. meleagridis. The test can be described thus: Controlling Histomoniasis in turkeys (QSC HD 1500 ppm). The conditions noted are these: MED 30 mg/kg bird/day. How it is done: A total of 160 3-week-old female turkeys were randomly grouped into 10 pens. The groups were: control (−) CON, control (+) POS, metronidazole (MED), two groups treated with QSC at 1500 ppm (HD greater dose than in the previous trial). The CON group was not challenged or treated with any product; POS control was only inoculated with a H. meleagridis suspension, and the MED group was inoculated with the same dose and treated with metronidazole, 30 mg/kg bird/day. […] Table 1208 summarizes bird distribution according to treatments, as well as the appropriate product dosage.
The treatments were started as of 3 weeks of age. The H. meleagridis challenge suspension was 100000 cell/mL, approximately, and was inoculated at 4 weeks of age, via cloacal route. Female turkey mortality rate was recorded throughout the trial, and lesions were measured by using a previously standardized lesion scoring at 8 weeks of age.

Test [3] has as its system H. meleagridis. The test can be described thus: Controlling Histomoniasis in turkeys (QSC and QHS). The note with it: MED 30 mg/kg bird/day; QHS 1500 ppm; QSC 750 ppm. How it is done:
A total of 160 3-week-old female turkeys were randomly grouped into 10 pens. The groups were: control (−) CON, control (+) POS, MED (metronidazole), and two different treatments, (QSC and QHS's active content under treatment) is set). Control group (−) was not challenged or treated with any product, control (+) was only inoculated with a H. meleagridis suspension, and the MED group was inoculated with the same dose and treated with metronidazole, 30 mg/kg bird/day. […] Table 22 summarizes bird distribution according to treatments, as well as the appropriate product dosage.
The treatments were started as of 3 weeks of age. The H. meleagridis challenge suspension contained 100000 cells/mL, approximately, and was inoculated as of 4 weeks of age, cloacal route. The female turkey mortality rate was recorded throughout the trial, and lesions were measured by using a previously standardized lesion scoring at 8 weeks of age.

The subject of test [4] is H. meleagridis. The experiment in a line: Controlling Histomoniasis in turkeys (BQ batches 3250 ppm). The conditions noted are these: MED 30 mg/kg bird/day; BQ-1, BQ-2, BQ-3 3250 ppm. How it is done: A total of 200 3-week-old young female turkeys were randomly grouped in 10 pens. The groups were: control (−) CON, control (+) POS, MED (metronidazole), 3 groups treated with BQ. BQ is a quillay wood-based additive where three different batches were evaluated with (2.5-5.5%) saponins.
The treatments were started as of 3 weeks of age. The H. meleagridis challenge suspension contained 100000 cell/ml, approximately, and was inoculated at 4 weeks of age, via cloacal route. The female turkey mortality rate was recorded throughout the trial, and lesions were measured by using a previously standardized lesion scoring at 8 weeks of age.

Where “and” joins values, the source holds several entries; their conditions need not be identical. Equal values may be shown once.

Regarding `Cc1ncc([N+](=O)[O-])n1CCO` [MED, metronidazole], the Cecum lesion score in the test with H. meleagridis [1] amounted to 0.2a; in the test with H. meleagridis [2], 1.3b; in the test with H. meleagridis [3], 1.5c; in the test with H. meleagridis [4], 0.85a. The Liver lesion score is listed as 0.0a in the test with H. meleagridis [1], 0.28ab with H. meleagridis [2], 0.3a in the test with H. meleagridis [3] and 0.5ab with H. meleagridis [4]. Further, the “Mortality (%)” value in the test on H. meleagridis [1] was 2% and 2a %; in the test on H. meleagridis [2], 10% and 10a %; in the test on H. meleagridis [3], 25% and 25.00ab %; in the test with H. meleagridis [4] it was 10% and 10.00ab %.
